From ChEMBL document CHEMBL1201862, “PubChem BioAssay data set” (2004)
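Where inhibition never reached the appropriate level, the endpoint shown equals the highest concentration tested. Otherwise, values were interpolated linearly from a five-concentration, 48-hour dose response in 96-well plates. GI50 marks 50% less growth.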 Calls of active or inactive are those of the source. Cut-off read from the data, not from the text of the source: active = GI50 up to about 1.1 µM and inactive = higher. Numbered stars: 1 amine (or outer) side, 2 acyl side, 3 side chain; on linkers, the order of the positions; unused ones are H or OH. Square brackets hold non-standard residues; d marks the D form. Peptide text beside a SMILES is read from it. X55 = CC[C@H](C)[C@H](OC(=O)[C@@H](C)[C@@H](CC)N[*:1])C(=O)[*:2]; X31 = C[C@H](N[*:1])C(=O)C(C)(C)C(=O)[*:2]; NMeY = CN[C@@H](Cc1ccc(O)cc1)C(=O)O; NMeL = CN[C@@H](CC(C)C)C(=O)O; NMeV = CN[C@H](C(=O)O)C(C)C

Tests used:
Assay in all cases: DTP human tumour cell line panel, 48 h
MDA-N = system: MDA-N
OVCAR-4 = system: OVCAR-4
SR = system: SR
SK-MEL-2 = system: SK-MEL-2
786-0 = system: 786-0
HCC 2998 = system: HCC 2998
BT-549 = system: BT-549
SN12C = system: SN12C
OVCAR-8 = system: OVCAR-8
MDA-MB-435 = system: MDA-MB-435
Malme-3M = system: Malme-3M
RXF 393 = system: RXF 393
MCF7 = system: MCF7
SF-539 = system: SF-539
COLO 205 = system: COLO 205
HCT-116 = system: HCT-116
SK-OV-3 = system: SK-OV-3
NCI-H460 = system: NCI-H460
NCI/ADR-RES = system: NCI/ADR-RES
K562 = system: K562

| SMILES | GI50 (MDA-N) | GI50 (OVCAR-4) | GI50 (SR) | GI50 (SK-MEL-2) | GI50 (786-0) | GI50 (HCC 2998) | GI50 (BT-549) | GI50 (SN12C) | GI50 (OVCAR-8) | GI50 (MDA-MB-435) | GI50 (Malme-3M) | GI50 (RXF 393) | GI50 (MCF7) | GI50 (SF-539) | GI50 (COLO 205) | GI50 (HCT-116) | GI50 (SK-OV-3) | GI50 (NCI-H460) | GI50 (NCI/ADR-RES) | GI50 (K562) |
| --- | --- | --- | --- | --- | --- | --- | --- | --- | --- | --- | --- | --- | --- | --- | --- | --- | --- | --- | --- | --- |
| O=c1cc(-c2ccc(O)c(O)c2)oc2cc(O[C@H]3O[C@H](CO)[C@@H](O)[C@H](O)[C@H]3O)cc(O)c12 | > 100 µM (inactive) | > 100 µM (inactive) | 5.69 µM (inactive) | 99.8 µM (inactive) | > 100 µM (inactive) | > 100 µM (inactive) | > 100 µM (inactive) | > 100 µM (inactive) | > 100 µM (inactive) | > 100 µM (inactive) | > 100 µM (inactive) | > 100 µM (inactive) | > 100 µM (inactive) | > 100 µM (inactive) | > 100 µM (inactive) | 28.8 µM (inactive) | > 100 µM (inactive) | 34.8 µM (inactive) | > 100 µM (inactive) | – |
| O=C1c2ccccc2-n2c1nc1cc(Cl)ccc1c2=O | 14.5 µM (inactive) | 27.7 µM (inactive) | 6.62 µM (inactive) | 43.9 µM (inactive) | 89.7 µM (inactive) | > 100 µM (inactive) | > 100 µM (inactive) | > 100 µM (inactive) | 36.8 µM (inactive) | 2.02 µM (inactive) | 6.7 µM (inactive) | 55.7 µM (inactive) | > 100 µM (inactive) | > 100 µM (inactive) | > 100 µM (inactive) | > 100 µM (inactive) | > 100 µM (inactive) | 30.3 µM (inactive) | > 100 µM (inactive) | 4.05 µM (inactive) |
| COC(=O)c1cc(C)ccc1CC(Cc1ccc(C)cc1)C(=O)OC (stereo not drawn) | 40.6 µM (inactive) | 38.8 µM (inactive) | 7.71 µM (inactive) | 25.1 µM (inactive) | 25.7 µM (inactive) | 25.8 µM (inactive) | > 100 µM (inactive) | > 65.5 µM (inactive) | > 66.8 µM (inactive) | 31 µM (inactive) | 22 µM (inactive) | 2.87 µM (inactive) | 26.3 µM (inactive) | 27.5 µM (inactive) | 14.8 µM (inactive) | 10.5 µM (inactive) | 26.6 µM (inactive) | 40.4 µM (inactive) | 23.7 µM (inactive) | 3.18 µM (inactive) |
| CC1CN=C(Nc2cccc(F)c2)S1 (stereo not drawn) | > 100 µM (inactive) | > 100 µM (inactive) | 7.87 µM (inactive) | > 100 µM (inactive) | > 100 µM (inactive) | > 100 µM (inactive) | > 100 µM (inactive) | > 100 µM (inactive) | > 100 µM (inactive) | > 100 µM (inactive) | > 100 µM (inactive) | > 100 µM (inactive) | > 100 µM (inactive) | > 100 µM (inactive) | > 100 µM (inactive) | > 100 µM (inactive) | > 100 µM (inactive) | – | > 100 µM (inactive) | > 100 µM (inactive) |
| CC1=C2NCN(C)N=C2C(C#N)(C#N)C1(C#N)C#N | 15.6 µM (inactive) | 20 µM (inactive) | 6.49 µM (inactive) | > 61.7 µM (inactive) | 19.5 µM (inactive) | 21 µM (inactive) | 21.6 µM (inactive) | 19.5 µM (inactive) | 27 µM (inactive) | 21.7 µM (inactive) | 20.4 µM (inactive) | 19.1 µM (inactive) | 19.8 µM (inactive) | 27 µM (inactive) | 5 µM (inactive) | 23.1 µM (inactive) | > 100 µM (inactive) | – | 28.6 µM (inactive) | 3.78 µM (inactive) |
| CC(C)CCn1nc(N)c2nc3ccccc3nc21 | > 100 µM (inactive) | > 100 µM (inactive) | 15.2 µM (inactive) | > 100 µM (inactive) | > 100 µM (inactive) | > 100 µM (inactive) | > 100 µM (inactive) | > 100 µM (inactive) | > 100 µM (inactive) | > 100 µM (inactive) | > 100 µM (inactive) | > 100 µM (inactive) | 72.8 µM (inactive) | > 100 µM (inactive) | – | 56 µM (inactive) | > 100 µM (inactive) | 57 µM (inactive) | > 100 µM (inactive) | 57.1 µM (inactive) |
| CCCC(=O)NC(Nc1cc(C)ccn1)(C(=O)OCC)C(F)(F)F (stereo not drawn) | > 100 µM (inactive) | > 100 µM (inactive) | > 100 µM (inactive) | > 100 µM (inactive) | > 100 µM (inactive) | > 100 µM (inactive) | > 100 µM (inactive) | > 100 µM (inactive) | > 100 µM (inactive) | > 100 µM (inactive) | > 100 µM (inactive) | > 100 µM (inactive) | > 100 µM (inactive) | > 100 µM (inactive) | > 100 µM (inactive) | > 100 µM (inactive) | > 100 µM (inactive) | – | > 100 µM (inactive) | > 100 µM (inactive) |
| CCOC(=O)/C(C#N)=C/Nc1c(C)n(C)n(-c2ccccc2)c1=O | > 100 µM (inactive) | > 100 µM (inactive) | > 100 µM (inactive) | > 100 µM (inactive) | > 100 µM (inactive) | > 100 µM (inactive) | > 100 µM (inactive) | > 100 µM (inactive) | > 100 µM (inactive) | > 100 µM (inactive) | > 100 µM (inactive) | > 100 µM (inactive) | > 100 µM (inactive) | > 100 µM (inactive) | > 100 µM (inactive) | > 100 µM (inactive) | > 100 µM (inactive) | – | 47.6 µM (inactive) | > 100 µM (inactive) |
| CCOC(=O)C(C)c1nc2cc(F)c(N3CCOCC3)cc2[nH]c1=O (stereo not drawn) | > 100 µM (inactive) | > 100 µM (inactive) | > 100 µM (inactive) | > 100 µM (inactive) | > 100 µM (inactive) | > 100 µM (inactive) | > 100 µM (inactive) | > 100 µM (inactive) | > 100 µM (inactive) | > 100 µM (inactive) | > 100 µM (inactive) | > 100 µM (inactive) | > 100 µM (inactive) | > 100 µM (inactive) | > 100 µM (inactive) | > 100 µM (inactive) | > 100 µM (inactive) | 39.1 µM (inactive) | > 100 µM (inactive) | > 100 µM (inactive) |
| CC[C@H](C)[C@@H]1OC(=O)[C@@H](C)[C@@H](CC)NC(=O)[C@H](C)NC(=O)C(C)(C)C(=O)[C@H](C)NC(=O)[C@H](Cc2ccc(OC)cc2)N(C)C(=O)[C@H](C(C)C)N(C)C(=O)CNC(=O)[C@H](CC(C)C)N(C)C(=O)CNC1=O [DOLASTATIN 11] (cyclo(A[X55]G[NMeL]G[NMeV][NMeY](Me)[X31])) | 0.0855 µM (active) | 0.0507 µM (active) | 0.0355 µM (active) | 0.0787 µM (active) | 0.0304 µM (active) | 0.0188 µM (active) | 0.091 µM (active) | 0.194 µM (active) | 0.101 µM (active) | 0.0603 µM (active) | 0.13 µM (active) | 0.0223 µM (active) | 0.0592 µM (active) | 0.0122 µM (active) | – | 0.154 µM (active) | 0.229 µM (active) | 0.00115 µM (active) | 0.802 µM (active) | 0.0885 µM (active) |
